Measured values reported in patent publication US5459160A, “Iridoid derivatives and the use thereof as a drug” (Tsumura & Co., priority 1990, dated 1995).

Key:
[1] = tested on: cholesterol synthesis in liver slices; experiment: Cholesterol synthesis from [1-14C] acetic acid in liver slices (Experimental Example 2); format: cell-based, male Wistar rats; settings: drug final concentration 0.1-1.0 mM, 37° C., 120 minutes; control 100; Table 2
Protocol: Liver slices (0.5 mm) were prepared from male Wistar rats 5 weeks old acclimated for 10 days in a bright/dark inversion raising chamber (bright period: 8:00 p.m.-8:00 a.m.). […] Incubation was carried out at 37° C. for 120 minutes in 95% oxygen and 5% carbon dioxide. The reaction was stopped by adding 1 m.iota. of 15% potassium hydroxide/ethanol, and saponification was carried out at 80° C. for 2 hours. The sterol fraction was extracted by petroleum ether and was evaporated to driness. Thereafter, 1 m.iota. of acetone/ethanol (1:1) and 1 m.iota. of 0.5% digitonine were added, and the mixture was left standing for a night at room temperature. The precipitate was collected by centrifugal separation and was washed with 2 m.iota. of acetone/ether (1:1). The precipitate was further centrifuged. After the supernatant was discarded, the precipitate was dissolved in methanol and its radioactivity was measured.

bile secretion = experiment: Cholagogic action, bile secretion (Experimental Example 5); format: in vivo, male Wistar rats; settings: intraduodenal
Protocol: After male Wistar rats 7 weeks old were fasted for 24 hours, they were anesthetized by the interperitoneal administration of 1.25 g/kg (volume 2 m.iota./kg) of urethane. A polyethylene canula (SP-10, a product of Natsume Seisakusho) was inserted into a bile duct and after the bile was caused to flow out for 30 minutes, the bile was collected in the cource of 1 hour. Thereafter, each test drug was suspended or dissolved in a 1% aqueous Tween-80 solution, and was administered into the duodenum at a rate of 5 m.iota./kg. Furthermore, the bile was collected every hour in the course of five hours, and its weight was measured. Only a 1% Tween-80 solution was given as a control.
The results are tabulated in Tables 6, 7, 8, 9 and 10, wherein the bile secretion amount every hour was represented by a percentage with the bile secretion amount (mg) one hour before the dose of the test drug being 100.

Acute toxicity test = settings: mouse, in vivo, ip; male S.P.P. mice, abdominally administered; Table 11
Protocol: The acute toxicity test was carried out by abdominally administering each test drug to male S.P.P. mice and determining an LD50 value.

hyperlipemia [2] = experiment: Anti-hyperlipemia test in rats on high fat food (Experimental Example 1); format: in vivo, Male Wistar rats; settings: peroral once a day, two weeks, control 100, Table 1
Excerpt: Male Wistar rats 6.5 weeks old were allowed to freely intake a high fat food (containing 1% of cholesterol, 0.5% of sodium cholate, 12% of beef tallow and 20% of standard chow) in the cource of two weeks, to thus cause an outbreak of hyperlipemia. The dose of the drug was started simultaneously with the application of the high fat food, and was perorally given once a day through a stomach tube until the end of the experiment. The drugs were all suspended in a cane sugar fatty acid ester and were administered. The oily compounds were adjusted in advance to 100 mg/m.iota. by diethyl ether. A suitable amount was collected at the time of the dose and after diethyl ether was evaporated and removed, it was suspended in a cane sugar fatty acid ester (1% ryoto sugar ester) and then given. After the final dose of the drug, the rats were fasted for about 18 hours, and the blood was sampled to measure the blood serum lipid. The blood serum lipid was measured by using a TBA-380 biochemical analyzer (a product of Toshiba Medical Co.,) unless a particular hindrance occurred.

hyperlipemia [3] = experiment: Anti-hyperlipemia test in rats on high fat food (Experimental Example 4); format: in vivo, Male Wistar rats; settings: peroral once a day, two weeks, control 100, Table 5
Excerpt: Male Wistar rats 6.5 weeks old were allowed to freely intake a high fat food (0.5% cholesterol, 1.0% cholic acid, 20.0% casein, 50.5% cane sugar, 12.0% hardened coconut oil, 4.0% cellulose, 4.0% mineral mixture, 0.5% vitamine mixture, 7.5% white fish meal) in the course of two weeks so as to cause the outbreak of hyperlipemia. The dose of the drug was started simultaneously with the application of the high fat food, and was perorally given once a day through a stomach tube until the end of the experiment. The drugs were all suspended in a cane sugar fatty acid ester and were administered. The oily compounds were adjusted in advance to 100 mg/m.iota. by diethyl ether. A suitable amount was collected at the time of the dose and after diethyl ether was evaporated and removed, it was suspended in a cane sugar fatty acid ester (1% ryoto sugar ester) and was then given. After the final dose of the drug, the rats were fasted for about 18 hours, and the blood was sampled to measure the blood serum lipid. The blood serum lipid was measured by using a TBA-380 bio-chemical analyzer (a product of Toshiba Medical Co.,) unless a particular hindrance occurred.

[4] = 0-1 hour after dose, control 82.9, Table 10
[5] = 1-2 hour after dose, control 74.1, Table 10
[6] = 2-3 hour after dose, control 66.1, Table 10
[7] = 3-4 hour after dose, control 59.8, Table 10
[8] = 4-5 hour after dose, control 53.3, Table 10
[9] = 0-1 hour after dose, control 84.1, Table 8
[10] = 1-2 hour after dose, control 72.5, Table 8
[11] = 2-3 hour after dose, control 63.8, Table 8
[12] = 3-4 hour after dose, control 56.7, Table 8
[13] = 4-5 hour after dose, control 51.2, Table 8

Structure (SMILES) | Relative amount of synthesized cholesterol (%) [1] | Bile secretion amount, percentage of the hour before dose (bile secretion; [4]) | Bile secretion amount, percentage of the hour before dose (bile secretion; [5]) | Bile secretion amount, percentage of the hour before dose (bile secretion; [6]) | Bile secretion amount, percentage of the hour before dose (bile secretion; [7]) | Bile secretion amount, percentage of the hour before dose (bile secretion; [8]) | LD50 (Acute toxicity test) | Blood serum cholesterol (%) (hyperlipemia [2]; 10 mg/kg) | Blood serum triglyceride (%) (hyperlipemia [2]; 10 mg/kg) | Blood serum cholesterol (%) (hyperlipemia [2]; 30 mg/kg) | Blood serum triglyceride (%) (hyperlipemia [2]; 30 mg/kg) | Bile secretion amount, percentage of the hour before dose (bile secretion; [9]) | Bile secretion amount, percentage of the hour before dose (bile secretion; [10]) | Bile secretion amount, percentage of the hour before dose (bile secretion; [11]) | Bile secretion amount, percentage of the hour before dose (bile secretion; [12]) | Bile secretion amount, percentage of the hour before dose (bile secretion; [13]) | Blood serum cholesterol (%) (hyperlipemia [3]; 10 mg/kg) | Blood serum cholesterol (%) (hyperlipemia [3]; 30 mg/kg) | further results
COC(=O)C1=COC(=O)[C@@H]2[C@H](C)CC[C@H]12 [Definite Example 32, methyl (4aS, 7R, 7aR)-1,4a, 5,6,7,7a-hexahydro-7-methyl-1-oxocyclopenta[c]pyran-4-carboxylate] | 96.2% | 110.7% | 80.6% | 66.2% | 55.6% | 49.6% | – | – | – | – | – | – | – | – | – | – | – | – | –
COC(=O)C1=CO[C@@H](OC(C)=O)[C@H]2[C@@H]1CC1OCC12OC(C)=O (stereo partly drawn) [Definite Example 30, methyl (iS, 4aS, 7aS)-1,7-diacetoxy-6,7-(epoxymethano)-1,4a, 5,6,7,7a-hexahydrocyclopenta[c]pyran-4-carboxylate] | 50.1% | 97.9% | 83.1% | 69.7% | 61.0% | 53.9% | 468 mg/kg | – | – | – | – | – | – | – | – | – | – | – | –
COC(=O)C1=COC(O)[C@H]2[C@@H]1CC[C@@H]2C (stereo partly drawn) [Definite Example 4, methyl (4aS, 7S, 7aR)-1,4a, 5,6,7,7a-hexahydro-1-hydroxy-7-methylcyclopenta[c]pyran-4-carboxylate] | – | – | – | – | – | – | – | 73.3% | 86.0% | 75.4% | 91.0% | 150.8% | 93.7% | 74.0% | 63.9% | 57.2% | 85.3% | 75.0% | Bile secretion amount, percentage of the hour before dose (bile secretion; 0-1 hour after dose, control 82.9, Table 6): 146.9%; Bile secretion amount, percentage of the hour before dose (bile secretion; 1-2 hour after dose, control 74.1, Table 6): 97.8%; Bile secretion amount, percentage of the hour before dose (bile secretion; 2-3 hour after dose, control 66.1, Table 6): 85.4%; Bile secretion amount, percentage of the hour before dose (bile secretion; 3-4 hour after dose, control 59.8, Table 6): 77.2%; Bile secretion amount, percentage of the hour before dose (bile secretion; 4-5 hour after dose, control 53.3, Table 6): 71.8%
COC(=O)C1=COC(O)[C@@H]2C(C)=CC[C@H]12 (stereo partly drawn) [Definite Example 9, methyl (4aS, 7aS)-1,4a, 5,7a-tetrahydro-1-hydroxy-7-methylcyclopenta[c]pyran-4-carboxylate] | – | – | – | – | – | – | 407 mg/kg | 93.6% | 74.5% | 59.3% | 60.0% | 134.5% | 90.9% | 76.5% | 66.7% | 59.4% | 70.8% | 62.8% | –
CC(=O)O[C@@H]1OC=C(CO)[C@H]2CC=C(CO)[C@@H]12 [Definite Example 27, (1S, 4aS, 7aS)-1-acetoxy-4,7-bis(hydroxymethyl)-1,4a, 5,7a-tetrahydrocyclopenta[c]pyran] | 73.5% | 98.3% | 75.3% | 59.0% | 48.7% | 43.5% | 473 mg/kg | – | – | – | – | – | – | – | – | – | – | – | –
